Source: patent US20240279202A1 (NURIX THERAPEUTICS, INC., priority 2021, published 2024)

Target: T1, ITK (Homo sapiens, UniProt Q08881)
T1 sequence (Q08881 1-620): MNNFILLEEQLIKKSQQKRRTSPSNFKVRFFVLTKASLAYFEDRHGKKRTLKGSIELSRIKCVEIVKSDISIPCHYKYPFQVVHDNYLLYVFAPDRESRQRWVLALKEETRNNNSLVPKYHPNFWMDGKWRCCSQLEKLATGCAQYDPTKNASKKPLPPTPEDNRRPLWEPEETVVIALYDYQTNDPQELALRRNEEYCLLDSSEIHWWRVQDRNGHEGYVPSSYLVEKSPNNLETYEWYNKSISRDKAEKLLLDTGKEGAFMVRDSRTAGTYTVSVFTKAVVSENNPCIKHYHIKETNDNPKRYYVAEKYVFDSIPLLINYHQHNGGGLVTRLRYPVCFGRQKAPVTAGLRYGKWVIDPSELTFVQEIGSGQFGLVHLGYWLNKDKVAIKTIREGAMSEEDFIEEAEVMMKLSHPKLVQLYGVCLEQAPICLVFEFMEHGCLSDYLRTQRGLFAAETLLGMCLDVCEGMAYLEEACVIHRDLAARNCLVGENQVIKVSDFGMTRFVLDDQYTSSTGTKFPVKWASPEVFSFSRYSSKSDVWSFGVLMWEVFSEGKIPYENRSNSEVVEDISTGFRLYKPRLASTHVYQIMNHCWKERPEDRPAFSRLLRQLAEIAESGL
Assay: ITK degradation HiBiT assay
Assay type: cell-based
Design: expressed in transfected cells; host or cells: Molt4 (ATCC CRL-1552), monoclonal clone 1C10, engineered to carry the HiBiT tag
Conditions: 4 hrs; for Dmax: MOLT-4, C-terminal HiBiT-tagged Molt4 cells; for DC50: C-terminal HiBiT-tagged Molt4 cells
Summary of the method: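 C-terminal HiBiT-tagged Molt4 cells (clone 1C10) treated 4 h at 32° C with an 11-point, 5-fold compound dilution series (0.5% DMSO). HiBiT lytic detection with LgBiT then luminescence read; % ITK remaining versus concentration fit by four-parameter variable-slope model to give DC50 and Dmax.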

| SMILES | Dmax [%] | DC50 [nM] |
| --- | --- | --- |
| C[C@@H]1CN(C(=O)c2ccc3cc(-c4n[nH]c5c4CCC(C)(C)C5)[nH]c3c2)C[C@H](C)N1CC1CCN(c2ccc(C3CCC(=O)NC3=O)cc2)CC1 (some centres unmarked) [Compound 157] | 84 | – |
| C[C@@H]1CN(C(=O)c2ccc3cc(-c4n[nH]c5c4C[C@@H]4C(F)(F)[C@]4(C)C5)[nH]c3c2)C[C@H](C)N1CC1CCN(c2ccc(C3CCC(=O)NC3=O)cc2)CC1 (some centres unmarked) [Compound 158] | 88 | – |
| C[C@@H]1CN(C(=O)c2ccc3cc(-c4n[nH]c5c4C[C@@H]4C(F)(F)[C@]4(C)C5)[nH]c3c2)CCN1CC1CCN(c2ccc(C3CCC(=O)NC3=O)cc2)CC1 (some centres unmarked) [Compound 159] | 84 | – |
| C[C@@H]1CN(C(=O)c2ccc3cc(-c4n[nH]c5c4C[C@@H]4C(F)(F)[C@]4(C)C5)[nH]c3c2)CCN1CC1CCN(c2ccc(C3CCC(=O)NC3=O)c(F)c2)CC1 (some centres unmarked) [Compound 160] | 83 | – |
| C[C@@H]1CN(C(=O)c2ccc3cc(-c4n[nH]c5c4C[C@@H]4C(F)(F)[C@]4(C)C5)[nH]c3c2)CCN1CC1CCN(c2ccc(C3CCC(=O)NC3=O)cc2F)CC1 (some centres unmarked) [Compound 161] | 85 | – |
| C[C@@]12Cc3[nH]nc(C(=O)Nc4cnn(CC5CCN(C(=O)C6CCN(c7ccc(N8CCC(=O)NC8=O)cc7)CC6)CC5)c4)c3C[C@@H]1C2(F)F [Compound 172] | 75 | – |
| Cc1nc(N2CCC(CN3CCN(C(=O)c4ccc5cc(-c6n[nH]c7c6CCC(C)(C)C7)[nH]c5c4)CC3)CC2)ccc1C1CCC(=O)NC1=O (centres unmarked) [Compound 181] | 61 | – |
| Cc1cc(N2CCC(CN3CCN(C(=O)c4ccc5cc(-c6n[nH]c7c6CCC(C)(C)C7)[nH]c5c4)CC3)CC2)ccc1C1CCC(=O)NC1=O (centres unmarked) [Compound 182] | 70 | – |
| CC1(C)CCc2c(-c3cc4ccc(C(=O)N5CCN(CC6CCN(c7ncc(C8CCC(=O)NC8=O)cc7F)CC6)CC5)cc4[nH]3)n[nH]c2C1 (centres unmarked) [Compound 183] | 81 | – |
| COc1cc(N2CCC(CN3CCN(C(=O)c4ccc5cc(-c6n[nH]c7c6CCC(C)(C)C7)[nH]c5c4)CC3)CC2)ccc1C1CCC(=O)NC1=O (centres unmarked) [Compound 184] | 70 | – |
| CC1(C)CCc2c(-c3cc4ccc(C(=O)N5CCN(CCC6CCN(c7cc(C8CCC(=O)NC8=O)ccn7)CC6)CC5)cc4[nH]3)n[nH]c2C1 (centres unmarked) [Compound 186] | 87 | – |
| CC1(C)CCc2c(-c3cc4ccc(C(=O)N5CCN(CC6CCN(c7ncc(C8CCC(=O)NC8=O)cn7)CC6)CC5)cc4[nH]3)n[nH]c2C1 (centres unmarked) [Compound 187] | 70 | – |
| C[C@@H](C(=O)N(C)c1cc2[nH]c(-c3n[nH]c4c3CCC(C)(C)C4)cc2cc1F)N1CCN(CC2CCN(c3ccc(C4CCC(=O)NC4=O)cn3)CC2)CC1 (some centres unmarked) [Compound 188] | 85 | – |
| C[C@@H]1CN(c2ccc(C3CCC(=O)NC3=O)cn2)CCN1CC1CCN(C(=O)c2ccc3cc(-c4n[nH]c5c4CCC(C)(C)C5)[nH]c3c2)CC1 (some centres unmarked) [Compound 189] | 84 | – |

Further lines, results first:

| Dmax [%] | DC50 [nM] | SMILES |
| --- | --- | --- |
| 86 | – | C[C@H]1CN(c2ccc(C3CCC(=O)NC3=O)cn2)CCN1CC1CCN(C(=O)c2ccc3cc(-c4n[nH]c5c4CCC(C)(C)C5)[nH]c3c2)CC1 (some centres unmarked) [Compound 190] |
| 78 | – | CC1(C)CCc2c(-c3cc4ccc(C(=O)N5CCC(CN6CCCN(c7ccc(C8CCC(=O)NC8=O)cn7)CC6)CC5)cc4[nH]3)n[nH]c2C1 (centres unmarked) [Compound 191] |
| 85 | – | CC1(C)CCc2c(-c3cc4ccc(C(=O)N5CCC(CN6CCc7cc(C8CCC(=O)NC8=O)ccc7C6)CC5)cc4[nH]3)n[nH]c2C1 (centres unmarked) [Compound 193] |
| 64 | – | CC1(C)CCc2c(-c3cc4cc(C(=O)N5CCC(CN6CCc7cc(C8CCC(=O)NC8=O)ccc7C6)CC5)ccc4[nH]3)n[nH]c2C1 (centres unmarked) [Compound 194] |
| 52 | – | CC1(C)CCc2c(-c3cc4ccc(C(=O)N5CCC(CN6CCCc7cc(C8CCC(=O)NC8=O)ccc76)CC5)cc4[nH]3)n[nH]c2C1 (centres unmarked) [Compound 199] |
| 70 | – | C[C@@]12Cc3[nH]nc(C(=O)Nc4cnn(CC5CCN(CC6CCN(C(=O)c7ccc(F)c(N8CCC(=O)NC8=O)c7)CC6)CC5)c4)c3C[C@@H]1C2(F)F [Compound 204] |
| 65 | 0.49 | C[C@@]12Cc3[nH]nc(C(=O)Nc4cnn(C5CCN(CC6CCN(c7ccc(N8CCC(=O)NC8=O)cc7)CC6)CC5)c4)c3C[C@@H]1C2(F)F [Compound 207, (4aS,5aR)-N-(1-(1-((1-(4-(2,4-dioxotetrahydropyrimidin-1(2H)-yl)phenyl)piperidin-4-yl)methyl)piperidin-4-yl)-1H-pyrazol-4-yl)-5,5-difluoro-5a-methyl-1,4,4a,5,5a,6-hexahydrocyclopropa[f]indazole-3-carboxamide] |
| 78 | 0.345 | C[C@@]12Cc3[nH]nc(C(=O)Nc4cnn(C5CCN(CC6CCN(c7ccc(N8CCC(=O)NC8=O)cc7)C6)CC5)c4)c3C[C@@H]1C2(F)F (stereo partly drawn) [Compound 209, (4aS,5aR)-N-(1-(1-((1-(4-(2,4-dioxotetrahydropyrimidin-1(2H)-yl)phenyl)pyrrolidin-3-yl)methyl)piperidin-4-yl)-1H-pyrazol-4-yl)-5,5-difluoro-5a-methyl-1,4,4a,5,5a,6-hexahydrocyclopropa[f]indazole-3-carboxamide] |
| 53 | 36 | CC1(C)CCc2c(-c3cc4ccc(C(=O)N5CCC(CN6CCN(c7cc(C8CCC(=O)NC8=O)ccn7)CC6)CC5)cc4[nH]3)n[nH]c2C1 (centres unmarked) [Compound 214, 3-{2-[4-({1-[2-(6,6-dimethyl-1,4,5,7-tetrahydroindazol-3-yl)-1H-indole-6-carbonyl]piperidin-4-yl}methyl)piperazin-1-yl]pyridin-4-yl}piperidine-2,6-dione] |
| 87 | 0.06 | CC1(C)CCc2c(-c3cc4cc(F)c(C(=O)N5CCN(CC6CCN(c7ccc(C8CCC(=O)NC8=O)nc7)CC6)CC5)cc4[nH]3)n[nH]c2C1 (centres unmarked) [Compound 216, 3-{5-[4-({4-[2-(6,6-dimethyl-1,4,5,7-tetrahydroindazol-3-yl)-5-fluoro-1H-indole-6-carbonyl]piperazin-1-yl}methyl)piperidin-1-yl]pyridin-2-yl}piperidine-2,6-dione] |
| 84 | 3.57 | CC1(C)CCc2c(-c3cc4ccc(C(=O)N5CCN(CC6CCN(c7ccc(C8CCC(=O)NC8=O)c(F)c7)CC6)CC5)cc4[nH]3)n[nH]c2C1 (centres unmarked) [Compound 221, 3-(4-(4-((4-(2-(6,6-dimethyl-4,5,6,7-tetrahydro-1H-indazol-3-yl)-1H-indole-6-carbonyl)piperazin-1-yl)methyl)piperidin-1-yl)-2-fluorophenyl)piperidine-2,6-dione] |
| 75 | 1.42 | CC1(C)CCc2c(-c3cc4ccc(C(=O)N5CCN(CC6CCN(c7ccc(C8CCC(=O)NC8=O)cc7F)CC6)CC5)cc4[nH]3)n[nH]c2C1 (centres unmarked) [Compound 222, 3-{4-[4-({4-[2-(6,6-dimethyl-1,4,5,7-tetrahydroindazol-3-yl)-1H-indole-6-carbonyl]piperazin-1-yl}methyl)piperidin-1-yl]-3-fluorophenyl}piperidine-2,6-dione] |
